Patent US20240309360A1, “TRANS-ACTIVATORS AND METHODS AND USE THEREOF” (THE GOVERNING COUNCIL OF THE UNIVERSITY OF TORONTO, priority 2021, published 2024)

Test system: EGFP reporter (7×TetO array, basal CMV promoter) in HEK293T reporter cell line
Experiment: TAD-seq pooled activation screen of 60-aa fragments fused to PYL1
Format: cell-based, human
Details: for Hit high GFP: high GFP population (top 1%); for logFC high GFP / logFC medium GFP: log 2 fold change of counts, 100 μM ABA 48 hours; for logFC high GFP: sorted high GFP cells (top 1%) vs unsorted cells; for logFC medium GFP: sorted medium GFP cells (top 2-5%) vs unsorted cells; for Hit medium GFP: medium GFP population (top 2-5%); call rule not given here
From the text: A fragment library of 75 activators identified in our screen was generated, using 60 amino-acid tiles every 20 aa such that every amino acid was represented by three different fragments (FIG. 3A). The pooled fragment library was fused to PYL1 and recruited to the same GFP reporter used in the original ORFeome screen (FIG. 3A). […] The GFP positive population was sorted into two independent replicates, and fragments in each population were quantified by sequencing. However, in contrast to the ORFeome screen, both high GFP cells (top 1%) and medium GFP cells (top 2-5%) were sorted to potentially identify transactivators of different strength.
Activation domain tiling library generation. A tiling library was generated from 75 proteins identified as activators in the ORFeome screen. Oligonucleotides containing a 5′ adapter […] (SEQ ID NO: 23) and a 3′ adapter […] (SEQ ID NO: 24) to generate a 5′ adapter ([…]) (SEQ ID NO: 11) and a 3′ adapter ([…]) (SEQ ID NO: 12) were synthesized as pooled libraries (Twist Biosciences). 6×50 μl PCR reactions were set up using NEBNext Ultra II Q5 master mix (New England Biolabs) with 5 nM oligos as template. PCR conditions were optimized to find the lowest cycle with a clean visible product at the expected 300 bp length. The thermocycling condition was an initial 30 s at 98° C., then 2 cycles of 98° C. for 10 s, 63° C. for 20 s, and 72° C. for 15 s, followed by 10 more cycles of 98° C. for 10 s and 72° C. for 30 s with a final extension at 72° C. for 5 min. Primers were designed to have Gateway compatible flanking sequences. The resulting libraries were gel extracted by QIAgen gel extraction kit after loading on a 2% TAE gel for 2 hrs at 60V and subsequently cloned into pDONR221 using 20 separate BP reactions in total of 5 μl reactions. The entry plasmid pool was transformed after an overnight reaction into DHSalpha competent E. coli and incubated overnight on LB agar plates containing kanamycin ([…]). Colonies were collected and plasmid DNA purified. 20 LR reactions were then set up as described in the previous section. Each reaction was transformed into NEB 10-beta chemically competent E. coli and grown on LB agar plates containing carbenicillin ([…]) overnight at 30° C. Colonies were counted to ensure >200-fold coverage at each step of cloning, pooled and maxiprepped.
Pooled activation screens. ORFeome and transactivation tiling libraries tagged at the C-terminus with PYL1 were packaged into lentiviral particles. A clonal EGFP reporter cell line stably co-expressing ABI-dCas9 and a gRNA targeting the promoter were transduced at low multiplicity of infection (MOI) with approximately 30% cell survival after puromycin (1 μg/mL) selection. Untransduced cells under the same condition were fully eliminated. Sufficient cells were transduced to maintain >500 fold coverage of the libraries. Recruitment was induced by treating cells with 100 μM abscisic acid (ABA, Sigma) for 48 hours. In parallel, a control batch of cells were treated with equal total volume of DMSO. Cells were then washed in PBS, treated with dissociation buffer (1 mM EDTA, 10 mM KCl, 150 mM NaCl, 5 mM sodium bicarbonate, 0.1% glucose) and resuspended in flow buffer (5 mM EDTA, 25 mM HEPES pH 7, 1% BSA, PBS). High GFP population for each library, top 1% for ORFeome and two bins of top 1% and the next 4% for the TAD screen, were sorted and their genomic DNA directly extracted using QIAmp DNA Blood Mini Kit (QIAGEN).
TAD sequencing. Performed nested PCR on the purified genomic DNA using primers targeting T7 promoter and PYL1 of the backbone vector in the first step creating a ˜470 bp product. Products of the first reaction were then pooled and amplified for an additional 10 steps using primers targeting outside the Gateway sites creating a ˜300 bp product. Libraries were quantified on Qubit dsDNA Broad Range kit and paired-end sequenced on an Illumina MIseq with a custom PAGE-purified R1 sequencing primer. […]

| Substance | Hit high GFP | logFC high GFP | logFC medium GFP | Hit medium GFP |
| --- | --- | --- | --- | --- |
| FAM90A1-19: 60-aa TAD-seq fragment of FAM90A1 (RQPPHSRPCLPTAQACTMSHHPAASHDGAQPLRVLFRRLENGRWSSSLLTAPSFHSPEKP; listed as Homo sapiens) | hit | 2.051 | 1.557 | hit |
| HOXA2-4: 60-aa TAD-seq fragment of HOXA2 (PGSHPRHGAGGRPKPSPAGSRGSPVPAGALQPPEYPWMKEKKAAKKTALLPAAAAAATAA; listed as Homo sapiens) | – | 1.664 | 1.595 | hit |
| HOXA2-5: 60-aa TAD-seq fragment of HOXA2 (RGSPVPAGALQPPEYPWMKEKKAAKKTALLPAAAAAATAAATGPACLSHKESLEIADGSG; listed as Homo sapiens) | – | 1.684 | 2.311 | hit |
| HOXA2-6: 60-aa TAD-seq fragment of HOXA2 (KKAAKKTALLPAAAAAATAAATGPACLSHKESLEIADGSGGGSRRLRTAYTNTQLLELEK; listed as Homo sapiens) | – | 1.951 | 1.738 | hit |
| HSF1-20: 60-aa TAD-seq fragment of HSF1 (KNELSDHLDAMDSNLDNLQTMLSSHGFSVDTSALLDLFSPSVTVPDMSLPDLDSSLASIQ; listed as Homo sapiens) | – | 0.6234 | 0.7077 | hit |
| HSF1-21: 60-aa TAD-seq fragment of HSF1 (MLSSHGFSVDTSALLDLFSPSVTVPDMSLPDLDSSLASIQELLSPQEPPRPPEAENSSPD; listed as Homo sapiens) | – | 0.432 | 0.8992 | hit |
| HSF1-24: 60-aa TAD-seq fragment of HSF1 (SGKQLVHYTAQPLFLLDPGSVDTGSNDLPVLFELGEGSYFSEGDGFAEDPTISLLTGSEP; listed as Homo sapiens) | – | 0.6763 | 0.8092 | hit |
| HSF1-25: 60-aa TAD-seq fragment of HSF1 (AQPLFLLDPGSVDTGSNDLPVLFELGEGSYFSEGDGFAEDPTISLLTGSEPPKAKDPTVS; listed as Homo sapiens) | – | 0.7725 | 1.153 | hit |
| JAZF1-1: 60-aa TAD-seq fragment of JAZF1 (MTGIAAASFFSNTCRFGGCGLHFPTLADLIEHIEDNHIDTDPRVLEKQELQQPTYVALSY; listed as Homo sapiens) | – | 0.2848 | 0.6639 | hit |
| KLF6-1: 60-aa TAD-seq fragment of KLF6 (MDVLPMCSIFQELQIVHETGYFSALPSLEEYWQQTCLELERYLQSEPCYVSASEIKFDSQ; listed as Homo sapiens) | hit | 5.453 | 1.868 | hit |
| KLF7-2: 60-aa TAD-seq fragment of KLF7 (YFSALPSLEETWQQTCLELERYLQTEPRRISETFGEDLDCFLHASPPPCIEESFRRLDPL; listed as Homo sapiens) | – | 1.431 | 1.165 | hit |
| KLF15-6: 60-aa TAD-seq fragment of KLF15 (GPVAWGPWRRAAAPVKGEHFCLPEFPLGDPDDVPRPFQPTLEEIEEFLEENMEPGVKEVP; listed as Homo sapiens) | hit | 2.467 | 1.202 | hit |
| LIN9-25: 60-aa TAD-seq fragment of LIN9 (SRLTAILLQIKCLAEGGDLNSFEFKSLTDSLNDIKSTIDASNISCFQNNVEIHVAHIQSG; listed as Homo sapiens) | hit | 2.094 | 1.08 | – |
| MYCBP-1: 60-aa TAD-seq fragment of MYCBP (MAHYKAADSKREQFRRYLEKSGVLDTLTKVLVALYEEPEKPNSALDFLKHHLGAATPENP; listed as Homo sapiens) | – | 1.017 | 0.73 | hit |
| MYCL1-1: 60-aa TAD-seq fragment of MYCL1 (MDYDSYQHYFYDYDCGEDFYRSTAPSEDIWKKFELVPSPPTSPPWGLGPGAGDPAPGIGP; listed as Homo sapiens) | – | 1.137 | 0.7968 | hit |
| MYOD1-2: 60-aa TAD-seq fragment of MYOD1 (CSFATTDDFYDDPCFDSPDLRFFEDLDPRLMHVGALLKPEEHSHFPAAVHPAPGAREDEH; listed as Homo sapiens) | – | 0.7025 | 0.8486 | hit |
| NEUROD1-6: 60-aa TAD-seq fragment of NEUROD1 (LRRMKANARERNRMHGLNAALDNLRKVVPCYSKTQKLSKIETLRLAKNYIWALSEILRSG; listed as Homo sapiens) | – | 0.6708 | 0.9533 | hit |
| NEUROG3-5: 60-aa TAD-seq fragment of NEUROG3 (RRSRRKKANDRERNRMHNLNSALDALRGVLPTFPDDAKLTKIETLRFAHNYIWALTQTLR; listed as Homo sapiens) | – | 0.06039 | 0.6713 | hit |
| NPAS4-31: 60-aa TAD-seq fragment of NPAS4 (DVPLVPEGLLTPEASPVKQSFFHYSEKEQNEIDRLIQQISQLAQGMDRPFSAEAGTGGLE; listed as Homo sapiens) | – | 1.22 | 0.8563 | hit |
| NPAS4-34: 60-aa TAD-seq fragment of NPAS4 (PLGGLEPLDSNLSLSGAGPPVLSLDLKPWKCQELDFLADPDNMFLEETPVEDIFMDLSTP; listed as Homo sapiens) | – | 0.946 | 0.9186 | hit |
| NPAS4-36: 60-aa TAD-seq fragment of NPAS4 (DNMFLEETPVEDIFMDLSTPDPSEEWGSGDPEAEGPGGAPSPCNNLSPEDHSFLEDLATY; listed as Homo sapiens) | – | 0.671 | 1.209 | hit |
| NPAS4-37: 60-aa TAD-seq fragment of NPAS4 (DPSEEWGSGDPEAEGPGGAPSPCNNLSPEDHSFLEDLATYETAFETGVSAFPYDGFTDEL; listed as Homo sapiens) | hit | 1.645 | 0.7019 | – |
| NPAS4-39: 60-aa TAD-seq fragment of NPAS4 (CNNLSPEDHSFLEDLATYETAFETGVSAFPYDGFTDELHQLQSQVQDSFHEDGSGGEPTF; listed as Homo sapiens) | – | 0.798 | 0.7684 | hit |
| RELB-2: 60-aa TAD-seq fragment of RELB (RRVARPPAAPELGALGSPDLSSLSLAVSRSTDELEIIDEYIKENGFGLDGGQPGPGEGLP; listed as Homo sapiens) | hit | 2.147 | 1.711 | hit |
| RELB-3: 60-aa TAD-seq fragment of RELB (SSLSLAVSRSTDELEIIDEYIKENGFGLDGGQPGPGEGLPRLVSRGAASLSTVTLGPVAP; listed as Homo sapiens) | hit | 1.768 | 1.803 | hit |
